Laboratory results taken from publication PMC6720199, “Antioxidant, Anti-Inflammatory, and Multidrug Resistance Modulation Activity of Silychristin Derivatives” (Antioxidants, 2019).

Each compound was assayed against T1, P-glycoprotein (P-gp, ABCB1) (Homo sapiens, UniProt P08183) (assay: Pgp-Glo luminescent ATPase assay, P-gp membranes).
T1 construct: P-gp containing membranes of the commercial Pgp-Glo Assay System (Promega; kit membranes carry recombinant human P-gp); full length, not purified
T1 sequence (P08183 whole entry): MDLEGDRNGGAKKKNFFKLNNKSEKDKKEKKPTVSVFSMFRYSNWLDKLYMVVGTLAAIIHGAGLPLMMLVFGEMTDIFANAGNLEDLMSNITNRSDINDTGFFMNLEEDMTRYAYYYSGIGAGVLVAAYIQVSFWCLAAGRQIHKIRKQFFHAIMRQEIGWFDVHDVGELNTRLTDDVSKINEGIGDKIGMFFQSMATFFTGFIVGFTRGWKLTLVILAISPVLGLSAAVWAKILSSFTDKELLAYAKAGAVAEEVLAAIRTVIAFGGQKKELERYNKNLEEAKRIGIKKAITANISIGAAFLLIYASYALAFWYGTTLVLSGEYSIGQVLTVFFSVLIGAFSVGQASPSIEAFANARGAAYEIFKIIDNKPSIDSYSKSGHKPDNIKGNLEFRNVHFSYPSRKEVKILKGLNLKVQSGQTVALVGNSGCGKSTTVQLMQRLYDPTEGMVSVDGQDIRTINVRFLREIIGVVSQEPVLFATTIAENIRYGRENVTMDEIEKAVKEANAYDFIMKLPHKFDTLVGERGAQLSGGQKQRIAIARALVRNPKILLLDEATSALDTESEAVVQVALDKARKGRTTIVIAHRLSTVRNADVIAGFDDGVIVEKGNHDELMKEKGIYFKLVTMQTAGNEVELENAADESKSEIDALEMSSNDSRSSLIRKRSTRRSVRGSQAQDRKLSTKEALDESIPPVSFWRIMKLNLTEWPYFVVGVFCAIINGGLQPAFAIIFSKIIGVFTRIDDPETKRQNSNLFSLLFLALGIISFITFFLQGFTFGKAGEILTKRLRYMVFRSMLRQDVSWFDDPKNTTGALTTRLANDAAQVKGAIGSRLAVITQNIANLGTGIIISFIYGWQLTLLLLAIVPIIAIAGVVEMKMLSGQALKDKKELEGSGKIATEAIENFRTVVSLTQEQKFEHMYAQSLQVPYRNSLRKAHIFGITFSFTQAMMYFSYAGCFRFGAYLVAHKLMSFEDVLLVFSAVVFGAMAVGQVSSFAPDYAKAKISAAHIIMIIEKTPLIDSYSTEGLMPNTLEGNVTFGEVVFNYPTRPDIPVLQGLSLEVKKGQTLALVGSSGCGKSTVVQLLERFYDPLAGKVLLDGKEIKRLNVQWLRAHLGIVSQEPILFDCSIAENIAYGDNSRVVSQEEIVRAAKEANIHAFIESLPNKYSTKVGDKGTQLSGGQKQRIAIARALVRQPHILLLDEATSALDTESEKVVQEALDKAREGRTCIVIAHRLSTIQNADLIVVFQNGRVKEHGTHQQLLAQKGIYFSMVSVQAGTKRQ
Type: biochemical
Description: Pgp-Glo luminescent ATPase assay, P-gp membranes on P-glycoprotein (P-gp, ABCB1)
With `COc1cc([C@@H]2Oc3c(O)cc(-c4oc5cc(O)cc(O)c5c(=O)c4O)cc3[C@H]2CO)ccc1O` [2,3-Dehydrosilychristin A] the IC50 was 15.6 ± 0.5 µM. With `COc1cc(-c2oc3c(O)cc([C@H]4Oc5cc(O)cc(O)c5C(=O)[C@@H]4O)cc3c2C)ccc1O` [Anhydrosilychristin] the IC50 was 16.8 ± 0.2 µM. `COc1cc([C@@H]2Oc3c(O)cc([C@H]4Oc5cc(O)cc(O)c5C(=O)[C@@H]4O)cc3[C@H]2CO)ccc1O` [Silychristin A] was tested, and the IC50 was 21 ± 1 µM.
